Patent US10927104B2, “Ether compounds and uses thereof” (BioTheryX, Inc., priority 2017, dated 2021)

Assays:
Type in all cases: cell-based
IL-1β = assay: PBMC assay, LPS-induced IL-1β (Meso Scale); settings: Homo sapiens, PBMCs, 100 ng/mL LPS 18-24 hrs; for inhibition at 0.1 µM: compound at 0.1 μM; for inhibition at 1 µM: compound at 1 μM
Procedure: (§1) FIG. 1 represents the activity against IL-1-beta in peripheral blood mononuclear cells (PBMCs), plated in 96 well plates and pretreated with compound for 1 hour and then induced with 100 ng/mL LPS for 18-24 hrs. Cytokines in the media were measured according to MesoScale protocol. Negative control wells were treated with DMSO. Compound activity is measured as a percentage of LPS-induced activity.
(§2) Frozen primary blood mononuclear cells (PBMCs) were purchased from AllCells. Cells were quick thawed, washed once with RPMI-1640/10% FBS.
(§3) 1% Penicillin/1% Streptomycin and plated in 96 well plates at 200,000 cells per well. Cells were pretreated with DMSO only, or Compound 1 for 1 hour and then induced with 100 ng/mL lipopolysaccharide (LPS) for 18-24 hrs. The supernatant was analyzed for IL-1 beta, IL-6, and TNFα, using Meso Scale assay according to manufacturer's protocol. The negative control wells were treated with DMSO.
(§4) Compound activity was measured as fold difference from the DMSO control. IL-1β activity is shown in FIG. 1; IL-6 activity is shown in FIG. 2; TNFα activity is shown in FIG. 3; and IL-2 activity is shown in FIG. 4. Additional data for compounds (shown as percent inhibition) at 10 μM is shown in Table 1; at 1 μM in Table 2; and at 0.1 μM in Table 3.

IL-2 = assay: Anti-CD3-induced IL-2 secretion in PBMCs (Mesoscale); settings: Homo sapiens, PBMC, anti-CD3 stimulated PBMCs, 24 hr, vs DMSO control, read-out: IL-2 Fold Change; for fold induction at 0.1 µM: compound at 0.1 μM; for fold induction at 1 µM: compound at 1 μM; for fold induction at 10 µM: compound 10 μM
Procedure: FIG. 4 represents Anti-CD3-induced IL-2 secretion in PBMCs. 1 μg/mL anti-CD3 (OKT-3) antibody in PBS coated onto 96-well plates overnight at 4° C. Approximately, 550,000 PBMCs were added to each well, followed by addition of DMSO only (control) or Compound 1. Induction was measured after 24 hrs as fold difference from the DMSO stimulated control.
as §2
For the IL-2 analysis, 96 well plates were precoated with 1 μg/mL anti-human CD3 antibody (OKT3, eBioscience Inc.). After washing with PBS, Compound 1 was added (50 μL/well) followed by PBMCs diluted at 3-4 million cells/mL (150 μL/well). Plates were incubated for 24 hr and the supernatants collected for Mesoscale IL-2 analysis.
as §4

IL-6 = assay: PBMC assay, LPS-induced IL-6 (Meso Scale); settings: Homo sapiens, PBMCs, 100 ng/mL LPS 18-24 hrs; for inhibition at 0.1 µM: compound at 0.1 μM; for inhibition at 1 µM: compound at 1 μM
Procedure: as §1, with “FIG. 2” for “FIG. 1”, “against IL-6” for “against IL-1-beta”, “Cytokines” for “Cytokines in the media”, “activity was” for “activity is”
as §2, §3, §4

MV-4-11 cells = assay: Cell viability assay (CellTiter-Glo), MV-4-11 proliferation; settings: Homo sapiens, MV4-11, 72 h, 3 days; for inhibition at 1 µM: compound at 1 μM; for inhibition at 10 µM: compound at 10 μM
Procedure: (§5) Molm-13 and MV-4-11 cells were cultivated in RPMI-1640 (10% FBS/1% pen-strep) and were plated in white walled 96-well plates at 20,000 cells/well.
(§6) Cells were treated with compound at the indicated concentration or DMSO (control) and the cultures were incubated for 3 days at 37° C. and 5% CO2. Following the incubation period, 100 μL of CellTiterGlow (CTG) reagent (CellTiter-Glo® Luminescent Cell Viability Assay, Promega (Madison, Wis.)) was added to each well. Following a 10 min incubation with shaking, luminescence was measured using a Victor Wallac Luminometer.

TNFα = assay: PBMC assay, LPS-induced TNFα (Meso Scale); settings: Homo sapiens, PBMCs, 100 ng/mL LPS 18-24 hrs; for inhibition at 0.1 µM: compound at 0.1 μM; for inhibition at 1 µM: compound at 1 μM
Procedure: as §1, with “FIG. 3” for “FIG. 1”, “against TNFα” for “against IL-1-beta”, “protocol. The negative” for “protocol. Negative”
as §2, §3, §4

Molm-13 cells = assay: Cell viability assay (CellTiter-Glo), Molm-13 proliferation; settings: Homo sapiens, MOLM-13, 72 h, 3 days; for inhibition at 10 µM: compound at 10 μM; for inhibition at 1 µM: compound at 1 μM; for inhibition at 0.1 µM: compound at 0.1 μM
Procedure: as §5, §6

Row | SMILES | inhibition at 0.1 µM (IL-1β) [%] | inhibition at 1 µM (IL-1β) [%] | fold induction at 0.1 µM (IL-2) | fold induction at 1 µM (IL-2) | inhibition at 0.1 µM (IL-6) [%] | inhibition at 1 µM (IL-6) [%] | inhibition at 1 µM (MV-4-11 cells) [%] | inhibition at 10 µM (MV-4-11 cells) [%] | inhibition at 0.1 µM (TNFα) [%] | inhibition at 1 µM (TNFα) [%] | inhibition at 10 µM (Molm-13 cells) [%] | fold induction at 10 µM (IL-2) | inhibition at 1 µM (Molm-13 cells) [%] | inhibition at 10 µM (IL-1β; compound at 10 μM) [%] | inhibition at 10 µM (IL-6; compound at 10 μM) [%] | inhibition at 10 µM (TNFα; compound at 10 μM) [%] | inhibition at 0.1 µM (Molm-13 cells) [%]
1 | Cc1cnc(Nc2ccc(OCCCNCC(=O)NCc3ccc(COc4cccc5c4CN([C@H]4CCCC(=O)NC4=O)C5=O)cc3)cc2)nc1Nc1cccc(S(=O)(=O)NC(C)(C)C)c1 [Compound 6] | 68 | 92 | 1 | 2.5 | 42 | 76 | 0 | 76 | 62 | 83 | 91 |  |  |  |  |  | 
2 | O=C1CCC[C@H](N2Cc3c(OCc4ccc(C(=O)N5CCOCC5)cc4)cccc3C2=O)C(=O)N1 [Compound 8, (S)-3-{4-[(p-Morpholinocarbonlphenyl)methoxy]-2-isoindolinoyl}-2,7-azepanedione] | 73 |  | 1.8 | 2.3 | 56 |  | 0 | 0 | 63 |  | 16 |  |  |  |  |  | 
3 | NCc1cccc(COc2cccc3c2CN([C@H]2CCCC(=O)NC2=O)C3=O)c1 [Compound 9, trifluoroacetic acid] | 74 |  | 1.6 | 1.6 | 51 |  | 2 | 10 | 62 |  | 34 |  |  |  |  |  | 
4 | O=C1CCC[C@H](N2Cc3c(OCc4cccc(CN5CCOCC5)c4)cccc3C2=O)C(=O)N1 [Compound 10] | 52 |  | 1.9 | 2.1 | 27 |  | 1 | 35 | 48 |  | 38 |  |  |  |  |  | 
5 | Cc1cnc(Nc2ccc(OCCCNC(=O)NCc3ccc(COc4cccc5c4CN([C@H]4CCCC(=O)NC4=O)C5=O)cc3)cc2)nc1Nc1cccc(S(=O)(=O)NC(C)(C)C)c1 [Compound 13] |  | 51 |  | 0.3 |  | 59 | 0 | 50 |  | 84 |  | 0.1 | 29 |  |  |  | 
6 | Cc1cnc(Nc2ccc(OCCCNC(=O)NCc3ccc(COc4cc(F)cc5c4CN([C@H]4CCC(=O)NC4=O)C5=O)cc3)cc2)nc1Nc1cccc(S(=O)(=O)NC(C)(C)C)c1 [Compound 18] |  | 80 |  | 3.2 |  | 49 | 99 | 99 |  | 83 | 99 | 3.3 |  | 83 | 45 | 89 | 
7 | Cc1cnc(Nc2ccc(OCCCNC(=O)NCc3ccc(COc4cccc5c4CN([C@H]4CCC(=O)NC4=O)C5=O)cc3)cc2)nc1Nc1cccc(S(=O)(=O)NC(C)(C)C)c1 [Compound 20] | 30 | 43 | 0.9 | 1.4 | 1 | 5 | 77 | 88 | 43 | 57 |  |  | 99 |  |  |  | 93
8 | NCc1ccc2c(c1OCc1ccc(CN3CCOCC3)cc1)CN([C@H]1CCCC(=O)NC1=O)C2=O [Compound 22, ditrifluoroacetic acid] | 69 | 74 | 2 | 2.4 | 23 | 27 | 2 | 4 | 78 | 80 |  |  | 56 |  |  |  | 31
9 | Cc1cnc(Nc2ccc(OCCCNC(=O)NCc3ccc4c(c3OCc3ccc(CN5CCOCC5)cc3)CN([C@H]3CCC(=O)NC3=O)C4=O)cc2)nc1Nc1cccc(S(=O)(=O)NC(C)(C)C)c1 [Compound 23] | 35 | 79 | 0.9 | 1.3 | 23 | 32 | 8 | 79 | 48 | 88 |  |  | 30 |  |  |  | 
10 | O=C1CCC[C@H](N2Cc3c(OCCc4ccc(CN5CCOCC5)cc4)cccc3C2=O)C(=O)N1 [Compound 26, (S)-3-(4-{2-[p-(Morpholinomethyl)phenyl]ethoxy}-2-isoindolinoyl)-2,7-azepanedione] | 78 | 81 | 2.6 | 2.7 | 5 | 8 | 2 | 23 | 82 | 87 |  |  | 66 |  |  |  | 21
11 | Cc1cnc(Nc2ccc(OCCCNC(=O)NCc3ccc4c(c3OCc3ccc(CN5CCOCC5)cc3)CN([C@H]3CCCC(=O)NC3=O)C4=O)cc2)nc1Nc1cccc(S(=O)(=O)NC(C)(C)C)c1 [Compound 27] | 50 | 62 | 1.3 | 1.5 | 5 | 4 | 10 | 36 | 60 | 72 |  |  | 37 |  |  |  | 
